From US20250215030A1, “STAT MODULATORS AND USES THEREOF” (Recludix Pharma, Inc., priority 2022, published 2025)

How the values were obtained:
[1] = target: T1, Recombinant STAT6 protein (STAT6(W123-T658)) (Homo sapiens, UniProt P42226); test: STAT6 Fluorescence Polarization (FP) Assay; format: binding; details: STAT6(W123-T658) 250 nM, probe 5-FAM-ApYKPFQDLI-NH2 2 nM, 45-minute incubation
T1 construct: STAT6(W123-T658)
T1 sequence (P42226 123-658): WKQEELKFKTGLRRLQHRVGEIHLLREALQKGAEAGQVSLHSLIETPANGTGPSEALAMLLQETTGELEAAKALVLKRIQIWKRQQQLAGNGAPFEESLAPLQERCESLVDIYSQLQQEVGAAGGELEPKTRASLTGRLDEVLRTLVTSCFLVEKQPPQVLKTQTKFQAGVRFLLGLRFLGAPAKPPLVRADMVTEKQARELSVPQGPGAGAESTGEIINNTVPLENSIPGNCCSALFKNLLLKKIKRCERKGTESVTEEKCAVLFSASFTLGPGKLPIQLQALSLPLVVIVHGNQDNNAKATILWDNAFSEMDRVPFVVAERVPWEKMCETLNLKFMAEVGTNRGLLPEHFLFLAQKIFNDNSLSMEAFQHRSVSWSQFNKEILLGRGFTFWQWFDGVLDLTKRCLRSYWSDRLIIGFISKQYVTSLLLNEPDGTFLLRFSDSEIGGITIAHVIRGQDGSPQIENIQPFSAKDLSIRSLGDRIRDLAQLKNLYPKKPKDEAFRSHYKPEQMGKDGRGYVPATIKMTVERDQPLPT
Procedure, shortened: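 STAT6 (W123-T658) at 250 nM mixed with 2 nM 5-FAM-ApYKPFQDLI-NH2 probe in HEPES pH 7.4 buffer with DTT and Tween 20, 1% DMSO final. Polarization read after 45 min at room temperature; IC50 by nonlinear regression of mP versus log concentration, reported in bins A–D.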

[2] = target: T2, Recombinant STAT3 protein (STAT3(G127-I722)) (Homo sapiens, UniProt P40763); test: STAT3 Fluorescence Polarization (FP) Assay; format: binding; details: STAT3(G127-I722) 25 nM, probe 5-FAM-GpYLPQTV-NH2 2 nM, 45-minute incubation
T2 construct: STAT3(G127-I722)
T2 sequence (P40763 127-722, species assumed): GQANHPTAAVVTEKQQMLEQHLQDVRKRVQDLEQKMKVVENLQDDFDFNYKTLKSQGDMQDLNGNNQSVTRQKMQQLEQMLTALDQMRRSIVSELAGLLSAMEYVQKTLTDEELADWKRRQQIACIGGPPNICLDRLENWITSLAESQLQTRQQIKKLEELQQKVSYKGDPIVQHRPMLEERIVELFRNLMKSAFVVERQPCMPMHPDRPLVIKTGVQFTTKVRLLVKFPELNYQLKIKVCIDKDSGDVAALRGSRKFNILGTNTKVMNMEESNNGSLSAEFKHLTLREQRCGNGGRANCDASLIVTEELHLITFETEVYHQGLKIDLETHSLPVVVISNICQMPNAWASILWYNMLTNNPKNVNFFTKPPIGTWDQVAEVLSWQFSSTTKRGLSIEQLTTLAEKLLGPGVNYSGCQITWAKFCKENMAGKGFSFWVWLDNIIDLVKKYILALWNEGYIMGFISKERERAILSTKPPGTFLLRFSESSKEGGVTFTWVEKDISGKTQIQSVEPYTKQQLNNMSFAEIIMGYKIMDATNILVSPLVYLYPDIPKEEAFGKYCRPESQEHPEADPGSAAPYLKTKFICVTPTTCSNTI
Procedure, shortened: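 STAT3(G127-I722) at 25 nM and 5-FAM-GpYLPQTV-NH2 probe at 2 nM in HEPES pH 7.4 buffer with NaCl, EDTA, Tween 20, DTT; 1% DMSO. FP read after 45 min at room temperature; IC50 by nonlinear regression of mP vs log concentration, binned A ≤100 nM to D >10 μM.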

Row | SMILES | IC50 [1] | IC50 [2]
1 | CC(C)(CNC(=O)[C@@H]1CC[C@@H]2C[C@@H]3C[C@@H]3C[C@H](NC(=O)c3cc4cc(C(F)(F)P(=O)(O)O)ccc4s3)C(=O)N21)c1cccnc1 [Compound 122, (difluoro(2-(((3S,6S,7aR,8aS,9aR)-3-((2-methyl-2-(pyridin-3-yl)propyl)carbamoyl)-5-oxodecahydro-1H-cyclopropa[d]pyrrolo[1,2-a]azocin-6-yl)carbamoyl)benzo[b]thiophen-5-yl)methyl)phosphonic acid] | 3 to 30 µM | 0.1 to 1 µM
2 | Cn1cnnc1C1CN(C(=O)[C@@H]2CC[C@@H]3C[C@@H]4C[C@@H]4C[C@H](NC(=O)c4cc5cc(C(F)(F)P(=O)(O)O)ccc5s4)C(=O)N32)C1 [Compound 76, (difluoro(2-(((3S,6S,7aR,8aS,9aR)-3-(3-(4-methyl-4H-1,2,4-triazol-3-yl)azetidine-1-carbonyl)-5-oxodecahydro-1H-cyclopropa[d]pyrrolo[1,2-a]azocin-6-yl)carbamoyl)benzo[b]thiophen-5-yl)methyl)phosphonic acid] | 3 to 30 µM | < 0.1 µM
3 | N#CC1CN(c2ccncc2C2CN(C(=O)[C@@H]3CC[C@@H]4C[C@H]5C[C@H]5C[C@H](NC(=O)c5cc6cc([C@@H](F)P(=O)(O)O)ccc6s5)C(=O)N43)C2)C1 [Example 428, ((S)-(2-(((3S,6S,7aS,8aR,9aR)-3-(3-(4-(3-cyanoazetidin-1-yl)pyridin-3-yl)azetidine-1-carbonyl)-5-oxodecahydro-1H-cyclopropa[d]pyrrolo[1,2-a]azocin-6-yl)carbamoyl)benzo[b]thiophen-5-yl)fluoromethyl)phosphonic acid] | 3 to 30 µM | < 0.1 µM
4 | CCc1ccncc1C1CN(C(=O)[C@@H]2CC[C@@H]3C[C@@H]4C[C@@H]4C[C@H](NC(=O)c4cc5cc([C@H](F)P(=O)(O)O)ccc5s4)C(=O)N32)C1 (single isomer, unassigned) [Example 345] | 3 to 30 µM | < 0.1 µM
5 | O=C(N[C@H]1C[C@@H]2C[C@@H]2C[C@H]2CC[C@@H](C(=O)N3CC(c4cc(C(F)F)on4)C3)N2C1=O)c1cc2cc(C(F)P(=O)(O)O)ccc2s1 (stereo partly drawn) [Example 375, ((2-(((3S,6S,7aS,8aR,9aR)-3-(3-(5-(difluoromethyl)isoxazol-3-yl)azetidine-1-carbonyl)-5-oxodecahydro-1H-cyclopropa[d]pyrrolo[1,2-a]azocin-6-yl)carbamoyl)benzo[b]thiophen-5-yl)fluoromethyl)phosphonic acid] | 3 to 30 µM | 0.1 to 1 µM
6 | Cc1noc(C2CN(C(=O)[C@@H]3CC[C@@H]4C[C@H]5C[C@H]5C[C@H](NC(=O)c5cc6cc(C(F)P(=O)(O)O)ccc6s5)C(=O)N43)C2)n1 (stereo partly drawn) [Example 326, (fluoro(2-(((3S,6S,7aS,8aR,9aR)-3-(3-(3-methyl-1,2,4-oxadiazol-5-yl)azetidine-1-carbonyl)-5-oxodecahydro-1H-cyclopropa[d]pyrrolo[1,2-a]azocin-6-yl)carbamoyl)benzo[b]thiophen-5-yl)methyl)phosphonic acid] | 3 to 30 µM | 0.1 to 1 µM
7 | COc1cc(C2CN(C(=O)[C@@H]3CC[C@@H]4C[C@H]5C[C@H]5C[C@H](NC(=O)c5cc6cc(C(F)P(=O)(O)O)ccc6s5)C(=O)N43)C2)on1 (stereo partly drawn) [Example 336, (fluoro(2-(((3S,6S,7aS,8aR,9aR)-3-(3-(3-methoxyisoxazol-5-yl)azetidine-1-carbonyl)-5-oxodecahydro-1H-cyclopropa[d]pyrrolo[1,2-a]azocin-6-yl)carbamoyl)benzo[b]thiophen-5-yl)methyl)phosphonic acid] | 3 to 30 µM | 0.1 to 1 µM
8 | O=C(N[C@H]1C[C@H]2C[C@H]2C[C@H]2CC[C@@H](C(=O)N3CC(CC(F)F)(c4ccccc4)C3)N2C1=O)c1cc2cc(C(F)(F)P(=O)(O)O)ccc2s1 [Compound 73, ((2-(((3S,6S,7aR,8aS,9aR)-3-(3-(2,2-difluoroethyl)-3-phenylazetidine-1-carbonyl)-5-oxodecahydro-1H-cyclopropa[d]pyrrolo[1,2-a]azocin-6-yl)carbamoyl)benzo[b]thiophen-5-yl)difluoromethyl)phosphonic acid] | 3 to 30 µM | < 0.1 µM
9 | NC(=O)N1C[C@H](NC(=O)[C@@H]2CC[C@@H]3C[C@H]4C[C@H]4C[C@H](NC(=O)c4cc5cc(C(F)P(=O)(O)O)ccc5s4)C(=O)N32)[C@@H](F)C1 (stereo partly drawn) [Example 330, ((2-(((3S,6S,7aS,8aR,9aR)-3-(((3S,4S)-1-carbamoyl-4-fluoropyrrolidin-3-yl)carbamoyl)-5-oxodecahydro-1H-cyclopropa[d]pyrrolo[1,2-a]azocin-6-yl)carbamoyl)benzo[b]thiophen-5-yl)fluoromethyl)phosphonic acid] | 0.3 to 3 µM | < 0.1 µM
10 | COc1ccncc1C1CN(C(=O)[C@@H]2CC[C@@H]3C[C@H]4C[C@H]4C[C@H](NC(=O)c4cc5cc(C(F)P(=O)(O)O)ccc5s4)C(=O)N32)C1 (stereo partly drawn) [Example 272, (fluoro(2-(((3S,6S,7aS,8aR,9aR)-3-(3-(4-methoxypyridin-3-yl)azetidine-1-carbonyl)-5-oxodecahydro-1H-cyclopropa[d]pyrrolo[1,2-a]azocin-6-yl)carbamoyl)benzo[b]thiophen-5-yl)methyl)phosphonic acid] | 3 to 30 µM | < 0.1 µM
11 | O=C(N[C@H]1C[C@@H]2C[C@@H]2C[C@H]2CC[C@@H](C(=O)N3CCN(C(=O)c4cn[nH]c4)CC3)N2C1=O)c1cc2cc(C(F)(F)P(=O)(O)O)ccc2s1 [Compound 104, ((2-(((3S,6S,7aS,8aR,9aR)-3-(4-(1H-pyrazole-4-carbonyl)piperazine-1-carbonyl)-5-oxodecahydro-1H-cyclopropa[d]pyrrolo[1,2-a]azocin-6-yl)carbamoyl)benzo[b]thiophen-5-yl)difluoromethyl)phosphonic acid] | 0.3 to 3 µM | < 0.1 µM
12 | N#Cc1cccc(C2CN(C(=O)[C@@H]3CC[C@@H]4C[C@H]5C[C@H]5C[C@H](NC(=O)c5cc6cc(C(F)(F)P(=O)(O)O)ccc6s5)C(=O)N43)C2)c1 [Compound 49, ((2-(((3S,6S,7aS,8aR,9aR)-3-(3-(3-cyanophenyl)azetidine-1-carbonyl)-5-oxodecahydro-1H-cyclopropa[d]pyrrolo[1,2-a]azocin-6-yl)carbamoyl)benzo[b]thiophen-5-yl)difluoromethyl)phosphonic acid] | 3 to 30 µM | < 0.1 µM
13 | CC(=O)N1CC2C1CCN2C(=O)[C@@H]1CC[C@@H]2C[C@H]3C[C@H]3C[C@H](NC(=O)c3cc4cc(C(F)(F)P(=O)(O)O)ccc4s3)C(=O)N21 (stereo partly drawn) [Example 258, ((2-(((3S,6S,7aS,8aR,9aR)-3-(6-acetyl-2,6-diazabicyclo[3.2.0]heptane-2-carbonyl)-5-oxodecahydro-1H-cyclopropa[d]pyrrolo[1,2-a]azocin-6-yl)carbamoyl)benzo[b]thiophen-5-yl)difluoromethyl)phosphonic acid] | 0.3 to 3 µM | < 0.1 µM
14 | CN(C)c1ccncc1C1CN(C(=O)[C@@H]2CC[C@@H]3C[C@@H]4C[C@@H]4C[C@H](NC(=O)c4cc5cc(CP(=O)(O)O)ccc5s4)C(=O)N32)C1 [Example 393, ((2-(((3S,6S,7aR,8aS,9aR)-3-(3-(4-(dimethylamino)pyridin-3-yl)azetidine-1-carbonyl)-5-oxodecahydro-1H-cyclopropa[d]pyrrolo[1,2-a]azocin-6-yl)carbamoyl)benzo[b]thiophen-5-yl)methyl)phosphonic acid] | > 30 µM | < 0.1 µM
15 | O=C(N[C@H]1C[C@@H]2C[C@@H]2C[C@H]2CC[C@@H](C(=O)N3CC(c4ccon4)C3)N2C1=O)c1cc2cc(C(F)(F)P(=O)(O)O)ccc2s1 [Example 299, (difluoro(2-(((3S,6S,7aS,8aR,9aR)-3-(3-(isoxazol-3-yl)azetidine-1-carbonyl)-5-oxodecahydro-1H-cyclopropa[d]pyrrolo[1,2-a]azocin-6-yl)carbamoyl)benzo[b]thiophen-5-yl)methyl)phosphonic acid] | 0.3 to 3 µM | < 0.1 µM
16 | O=C(N[C@H]1C[C@@H]2C[C@@H]2C[C@H]2CC[C@@H](C(=O)N3CC4(CN(C(=O)Cc5ccccc5)C4)C3)N2C1=O)c1cc2cc(C(F)(F)P(=O)(O)O)ccc2s1 [Compound 41, (difluoro(2-(((3S,6S,7aS,8aR,9aR)-5-oxo-3-(6-(2-phenylacetyl)-2,6-diazaspiro[3.3]heptane-2-carbonyl)decahydro-1H-cyclopropa[d]pyrrolo[1,2-a]azocin-6-yl)carbamoyl)benzo[b]thiophen-5-yl)methyl)phosphonic acid] | 0.3 to 3 µM | < 0.1 µM
